Data from patent EP4538262A1, “COCRYSTALS OF VORASIDENIB” (SANDOZ AG, priority 2023, dated 2025).

How the values were obtained:
[1] = in phosphate buffer pH 6.8 + 0.003% Tween 80, 10% methanol, 25 °C
[2] = Moisture sorption isotherm (DVS); assay type: physicochemical; conditions: between 10 to 90 % RH, RH step of 5% RH
Description: The moisture sorption isotherms were recorded with a SPS-11 moisture sorption analyzer (MD Messtechnik, Ulm, Germany). […] The equilibrium condition for each step was set to a mass constancy of ±0.002 % over 40 min.

| time of transformation to vorasidenib dihydrate [1] | DVS water content [2] | SMILES |
| --- | --- | --- |
| ten | – | CC(Nc1nc(NC(C)C(F)(F)F)nc(-c2cccc(Cl)n2)n1)C(F)(F)F.O=C(O)CC(=O)O (centres unmarked) [Vorasidenib malonic acid cocrystal] |
| – | not more than 2.0 % by weight | C[C@@H](Nc1nc(N[C@H](C)C(F)(F)F)nc(-c2cccc(Cl)n2)n1)C(F)(F)F.C[C@@H](Nc1nc(N[C@H](C)C(F)(F)F)nc(-c2cccc(Cl)n2)n1)C(F)(F)F.O.O=C(O)/C=C/C(=O)O [vorasidenib fumaric acid cocrystal] |
